Laboratory results taken from article PMC7614683, “A small molecule PI3Kα activator for cardioprotection and neuroregeneration” (Nature, 2023).
Several values for one entry are separate records, joined by “and”; a condition that tells them apart may be missing. Equal entries are not always repeated.

Tested on: rat sciatic nerve
Experiment: Rat sciatic nerve crush injury model
Type: in vivo
Conditions: 21 days, single animals
From the text: We used the rat sciatic nerve crush model of peripheral nerve injury and regeneration[82]–[84]. Adult female Sprague Dawley rats (230-280 g, n=10, Charles River, UK) were anaesthetised by isoflurane inhalation in an induction chamber (5% isoflurane in O2, 0.8 l/min). Anaesthesia was maintained with 1.5-2.5% isoflurane inhalation, and the left sciatic nerve exposed at mid-thigh level.
The nerve was crushed by application of constant pressure using fully closed sterile type 4 tweezers (TAAB) for 15 sec. This was repeated two more times at the same point, with 45° rotation between each crush. The injury site was marked with a 10/0 epineurial non-absorbant suture (Ethicon). Following injury, a single 2 μl injection of 1938 solution (5 μM in sterile H2O) or vehicle (sterile dH2O) was administered proximal to the crush site with a 10 μl Hamilton syringe. An osmotic minipump (Alzet 1004, Charles River, UK) was also implanted between the muscle layers, adjacent to the nerve oriented with the outlet nearest to the crush site, loaded with 1938 solution (100 μM in sterile H2O) or vehicle (sterile H2O). Animals were randomly assigned to groups (n=5 per group) and one experimenter was kept blind to condition for conducting functional and histological analyses. Overlying muscle layers were closed using 4/0 sutures (Ethicon) and the skin was closed with wound clips (Clay Adams). Animals were left to recover for 21 days.
At the end-point of the experiment (21 days), rats were anaesthetised and the sciatic nerve exposed as described above. A reference, ground (Natus) and recording electrode (Ambu Neuroline) were attached above the hip bone, into the tail, and into the tibialis anterior muscle respectively. A microchannel neurointerface (MNI) was placed approximately 2 mm proximal to the injury site and used to stimulate the nerve. The MNI was manufactured using a previously documented protocol. Electrode impedance of the MNI was 27.1 ±19.8 kΩ at 1k Hz. Compound muscle action potential (CMAP) was obtained by sciatic nerve stimulation with square wave pulses of 100 μsec with intensity from 1-10 mA. Stimulus was increased in 0.2 mA steps until muscle response amplitude no longer increased. CMAP amplitude was measured from peak to peak and recorded in triplicate for both the ipsilateral and contralateral side. The CMAP with the largest amplitude was selected for analysis.
A modified multipoint stimulation technique was used to calculate Motor Unit Number Estimation (MUNE)[86]–[88]. Incremental responses were obtained by delivering a submaximal stimulation of 100 μsec duration at a frequency of 1Hz while increasing the stimulus intensity in increments of 0.02 mA to obtain minimal responses. The initial response was obtained with a stimulus intensity of between 0.21 mA and 0.70 mA. […] Additional Single Motor Unit Potentials (SMUPs) were evoked by stimulation in increments of 0.02 mA to obtain a minimum of four additional increments. The position of the stimulating electrode and the location of the recording electrode was changed to allow the recording of SMUPs from a different site of the muscle. This process was repeated at least three times. The CMAP was divided by the mean magnitude of SMUPs to quantify MUNE.
After electrophysiology recordings, animals were culled with sodium pentobarbital injection according to local regulations. Sciatic nerves, including the common peroneal branch, and tibialis anterior muscles were collected and placed in 4% paraformaldehyde (PFA). Nerve samples were fixed overnight in 4% PFA at 4°C before transferring to PBS. Nerve samples were divided into sciatic nerves including the crush site, and the common peroneal branch for sectioning. Nerve samples were immersed in 30% sucrose overnight at 4°C, then snap frozen in Neg-50 frozen section medium (Thermo Scientific) using liquid nitrogen cooled isopentane. […]

[1] = sciatic nerve 3 mm distal to injury
[2] = sciatic nerve 6 mm distal to injury

**Q.** What does the source list for CCN1CCN(c2ccc(Nc3cc(Nc4cccc5c4N(C(C)=O)CC5)ccn3)cc2)CC1 [Compound 1938]?
**A.** Nerve Branch ChAT (ChAT-positive motor axons, distal common peroneal nerve): increase in 1938-treated animals in the number of choline acetyltransferase (ChAT)-positive motor axons and 34 and 72 and 42 and 49 and 62; Axons, ChAT [1]: 1228 and 1010 and 1060 and 720 and 1883; Axons, Neurofilament [1]: 7100 and 6477 and 6615 and 8292 and 8493; Axons, ChAT [2]: 922 and 986 and 763 and 966 and 1022; Axons, Neurofilament [2]: 5299 and 5863 and 4746 and 5437 and 5016; CMAP Recovery (tibialis anterior muscle): greater compound muscle action potential (CMAP) recovery and 16.9542 % contralateral and 21.941 % contralateral and 17.4705 % contralateral and 17.5154 % contralateral and 28.7184 % contralateral; MUNE Recovery (tibialis anterior muscle): increased motor unit number estimation and 60.8971 % contralateral and 47.6617 % contralateral and 40.6292 % contralateral and 44.6256 % contralateral and 48.3614 % contralateral; NMJ (tibialis anterior muscle): 17 % reinnervation and 31 % reinnervation and 16 % reinnervation and 23 % reinnervation and 26 % reinnervation
